Data: patent US20050043341A1, “3-'Hydroxy-(-4-trifluoromethylphenyl)-methyl-7-spirocyclobutyl-5,6,7 8-tetrahydroquinolin-5-ol derivatives and the use of the same as cholesterol ester transfer protein (cetp) inhibitors” (priority 2001, published 2005)
Read-outs that look alike come from different tables or passages of the source.

Tests used:
CETP [1] = target: T1, CETP (Homo sapiens, UniProt P11597); test: CETP fluorescence test; type: biochemical; conditions: CETP from human plasma, 37° C., 4 hours; read-out: IC50 (nM) Fluor. test
T1 construct: CETP is obtained in partially purified form from human plasma; from tissue; host or cells: human plasma
T1 sequence (P11597 18-493): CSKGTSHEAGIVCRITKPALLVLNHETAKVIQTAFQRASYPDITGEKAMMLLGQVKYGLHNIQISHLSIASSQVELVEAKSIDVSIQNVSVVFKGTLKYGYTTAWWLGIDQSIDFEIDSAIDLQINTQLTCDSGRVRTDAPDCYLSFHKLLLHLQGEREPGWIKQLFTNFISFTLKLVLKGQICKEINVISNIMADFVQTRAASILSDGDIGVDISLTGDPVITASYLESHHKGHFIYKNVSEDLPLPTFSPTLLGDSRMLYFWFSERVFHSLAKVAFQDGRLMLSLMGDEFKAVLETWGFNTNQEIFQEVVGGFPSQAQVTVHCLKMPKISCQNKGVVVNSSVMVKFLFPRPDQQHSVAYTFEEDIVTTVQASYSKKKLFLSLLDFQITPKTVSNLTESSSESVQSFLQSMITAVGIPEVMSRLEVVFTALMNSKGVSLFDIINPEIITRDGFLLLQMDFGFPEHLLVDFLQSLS
Procedure: (§1) CETP is obtained in partially purified form from human plasma by differential centrifugation and column chromatography and used for the test. To this end, human plasma is adjusted to a density of 1.21 g per ml using NaBr and centrifuged at 4° C. at 50000 rpm for 18 h. The bottom fraction (d>1.21 g/ml) is applied to a Sephadex® Phenyl-Sepharose 4B (Pharmacia) column, washed with 0.15 M NaCl/0.001 M tris HCl pH 7.4 and then eluted with dist. water. Die CETP-active fractions are pooled, dialysed against 50 mM Na acetate pH 4.5 and applied to a CM-Sepharose® (Pharmacia) column. The mixture is then eluted using a linear gradient (0-1 M NaCl). The pooled CETP fractions are dialysed against 10 mM TrisHCl pH 7.4 and then further purified by chromatography on a Mono Q® column (Pharmacia).
Measurement of the CETP-catalysed transfer of a fluorescent cholesterol ester between liposomes—modified according to the procedure of Bisgaier et al., J. Lipid Res. 34, 1625 (1993).
For the production of the donor liposomes, 1 mg of cholesteryl 4,4-difluoro-5,7-dimethyl-4-bora-3a,4a-diaza-s-indacene-3-dodecanoate (cholesteryl BODIPY® FL C12, Molecular Probes) is dissolved in 600 μl of dioxane with 5.35 mg of triolein and 6.67 mg of phosphatidylcholine with gentle warming in an ultrasonic bath and this solution is added very slowly with ultrasonication to 63 ml of 50 mM tris/HCl, 150 mM NaCl, 2 mM EDTA buffer pH 7.3 at RT.
The suspension is then ultrasonicated under an N2 atmosphere for 30 minutes in the Braukson ultrasonic bath at about 50 watts, the temperature being kept at about 20° C.
The acceptor liposomes are obtained analogously from 86 mg of cholesteryl oleate, 20 mg of triolein and 100 mg of phosphatidylcholine dissolved in 1.2 ml of dioxane and 114 ml of above buffer by ultrasonication at 50 watts (20° C.) for 30 minutes.
For testing, a test mix consisting of 1 part of above buffer, 1 part of donor liposomes and 2 parts of acceptor liposomes is used.
80 μl of test mix are treated with 1-3 μg of enriched CETP fraction, obtained from human plasma by means of hydrophobic chromatography, and 2 μl of the substance to be investigated in DMSO and incubated at 37° C. for 4 hours.
The change in the fluorescence at 485/535 nm is a measure of the CE transfer; the inhibition of the transfer in comparison to the control batch without substance is determined.

[2] = target: T2, CETP activity in the serum (Homo sapiens, UniProt P11597); test: Ex vivo activities on transgenic hCETP mice (serum CETP activity after oral administration); conditions: mouse, cholesteryl ester transport in serum
T2 construct: determination of its basal CETP activity in the serum; from tissue; host or cells: serum of transgenic hCETP mice
T2 sequence (P11597 18-493): T1 sequence (P11597 18-493)
Procedure: To test for CETP-inhibitory activity, the substances are administered orally using a stomach tube to transgenic hCETP mice of our own breeding (Dinchuk et al. BBA (1995) 1295-301). To this end, male mice are randomly assigned to groups having an equal number of animals, as a rule n=3, one day before the start of the experiment. Before administration of the substance, blood is taken from each mouse by puncture of the retroorbital venous plexus for the determination of its basal CETP activity in the serum (T1). The test substance is then administered to the animals using the stomach tube. At specific times after administration of the test substance, blood is taken from the animals by puncture a second time (T2), as a rule 1, or 3 and 6 h after substance administration, but if appropriate this can also be carried out at another time.
In order to be able to assess the inhibitory activity of a substance, for each time, i.e. 1 or 3 or 6 h, a corresponding control group is employed whose animals only receive the formulating agent without substance. In the control animals, the second blood sampling per animal is carried out as in the substance-treated animals in order to be able to determine the change in the CETP activity without inhibitor over the corresponding experimental time interval (1, 3 or 6 h).
After termination of the clotting, the blood samples are centrifuged and the serum is removed by pipette.
For the determination of the CETP activity, the cholesteryl ester transport over 4 h is determined. To this end, as a rule 2 μl of serum are employed in the test batch and the test is carried out as described under “CETP fluorescence test”.
The differences in the cholesteryl ester transport (pM CE*/h (T2)−pM CE*/h (T1)) are calculated for each animal and averaged in the groups. A substance which at one of the times reduces the cholesteryl ester transport by >30% is regarded as active.

CETP [3] = target: T1, CETP; test: CETP-SPA test; type: biochemical; conditions: 3H-cholesterol ester transfer from HDL to biotin-LDL, 37° C., 18 h
Procedure: as §1
50 ml of fresh human EDTA plasma are adjusted to a density of 1.12 using NaBr and centrifuged at 4° C. in a Ty 65 rotor at 50000 rpm for 18 h. The upper phase is used for the obtainment of cold LDL. The lower phase is dialysed against 3×41 of PDB buffer (10 mM tris/HCl pH 7.4, […], 1 mM EDTA, 0.02% NaN3). Per 10 ml of retentate volume, 20 μl of 3H-cholesterol (Dupont NET-725; 1 μC/μl dissolved in ethanol!) is then added and the mixture is incubated at 37° C. under N2 for 72 h.
The batch is then adjusted to the density 1.21 using NaBr and centrifuged at 20° C. in a Ty 65 rotor at 50000 rpm for 18 h. The upper phase is recovered and the lipoprotein fractions are purified by gradient centrifugation. To this end, the isolated, labelled lipoprotein fraction is adjusted to a density of 1.26 using NaBr. 4 ml each of this solution are covered in centrifuged tubes (SW 40 rotor) with a layer of 4 ml of a solution of density 1.21 and 4.5 ml of a solution of 1.063 (density solutions of PDB buffer and NaBr) and then centrifuged for 24 h at 38000 rpm and 20° C. in the SW 40 rotor. The intermediate layer lying between the density 1.063 and 1.21, containing the labelled HDL, is dialysed against 3×100 volumes of PDB buffer at 4° C.
The retentate contains radiolabelled ^3H-CE-HDL, which, adjusted to about 5×10^6 cmp per ml, is used for the test.
For testing of the CETP activity, the transfer of ^3H-cholesterol ester from human HD lipoproteins to biotinylated LD lipoproteins is measured.
The reaction is ended by addition of streptavidin-SPA®beads (Amersham) and the transferred radioactivity is determined directly in a liquid scintillation counter.
In the test batch, 10 μl of HDL-^3H-cholesterol ester (˜50000 cpm) are incubated at 37° C. for 18 h with 10 μl of biotin-LDL (Amersham) in 50 mM Hepes/0.15 M NaCl/0.1% bovine serum albumin/0.05% NaN3 pH 7.4 containing 10 μl of CETP (1 mg/ml) and 3 μl of solution of the substance to be tested (dissolved in 10% DMSO/1% RSA). 200 μl of the SPA-streptavidin bead solution (TRKQ 7005) are then added, incubated further with shaking for 1 h and then measured in a scintillation counter.
Corresponding incubations with 10 μl of buffer, 10 μl of CETP at 4° C. and 10 μl of CETP at 37° C. serve as controls.
The activity transferred in the control batches with CETP at 37° C. is rated as 100% transfer. The substance concentration at which this transfer is reduced to half is specified as the IC50 value.

[4] = 1 h after administration, read-out: % inhibition at 30 mg/kg, 1 h
[5] = 3 h after administration, read-out: % inhibition at 30 mg/kg, 3 h
[6] = 6 h after administration, read-out: % inhibition at 30 mg/kg, 6 h

Row | IC50 (CETP [1]) | inhibition at 30 mg/kg [2, 4] | inhibition at 30 mg/kg [2, 5] | inhibition at 30 mg/kg [2, 6] | IC50 (CETP [3]) | SMILES
1 | 70 nM |  |  |  |  | CC(C)c1c([C@@H](O)c2ccc(C(F)(F)F)cc2)c(C2CCCC2)nc2c1[C@@H](O)CC1(CCC1)C2 [Example 75, (5S)-2-Cyclopentyl-4-isopropyl-3-[(S)-hydroxy-(4-trifluoromethylphenyl)-methyl]-7-spirocyclobutyl-5,6,7,8-tetrahydroquinolin-5-ol]
2 | 60 nM |  |  |  | 15 nM | O[C@@H](c1ccc(C(F)(F)F)cc1)c1c(C2CCCC2)nc2c(c1C1CCCCC1)[C@@H](O)CC1(CCC1)C2 [Example 67, (5S)-2-Cyclopentyl-4-cyclohexyl-3-[(S)-hydroxy-(4-trifluoromethylphenyl)-methyl]-7-spirocyclobutyl-5,6,7,8-tetrahydroquinolin-5-ol]
3 | 2000 nM |  |  |  |  | CCCc1c([C@@H](O)c2ccc(C(F)(F)F)cc2)c(C2CCCC2)nc2c1[C@@H](O)CC1(CCC1)C2 [Example 77, (5S)-2-Cyclopentyl-4-(1-propyl)-3-[(S)-hydroxy-(4-trifluoromethylphenyl)-methyl]-7-spirocyclobutyl-5,6,7,8-tetrahydroquinolin-5-ol]
4 | 800 nM |  |  |  |  | O[C@@H](c1ccc(C(F)(F)F)cc1)c1c(C2CCCC2)nc2c(c1C1CCC1)[C@@H](O)CC1(CCC1)C2 [Example 73, (5S)-2-Cyclopentyl-4-cyclobutyl-3-[(S)-hydroxy-(4-trifluoromethylphenyl)-methyl]-7-spirocyclobutyl-5,6,7,8-tetrahydroquinolin-5-ol]

Continued, compound first:

Row | SMILES | IC50 (CETP [1]) | inhibition at 30 mg/kg [2, 4] | inhibition at 30 mg/kg [2, 5] | inhibition at 30 mg/kg [2, 6] | IC50 (CETP [3])
5 | O[C@@H](c1ccc(C(F)(F)F)cc1)c1c(C2CCCC2)nc2c(c1-c1cccs1)[C@@H](O)CC1(CCC1)C2 [Example 63, (5S)-2-Cyclopentyl-4-(2-thienyl)-3-[(S)-hydroxy-(4-trifluoromethylphenyl)-methyl]-7-spirocyclobutyl-5,6,7,8-tetrahydroquinolin-5-ol] | 70 nM | 74% | 55% | 40% | 
6 | CC(C)c1nc2c(c(-c3ccsc3)c1[C@@H](O)c1ccc(C(F)(F)F)cc1)[C@@H](O)CC1(CCC1)C2 [Example 57, (5S)-2-Isopropyl-4-(3-thienyl)-3-[(S)-hydroxy-(4-trifluoromethylphenyl)-methyl]-7-spirocyclobutyl-5,6,7,8-tetrahydroquinolin-5-ol] | 45 nM |  |  |  | 40 nM
7 | O[C@@H](c1ccc(C(F)(F)F)cc1)c1c(C2CCCC2)nc2c(c1-c1ccsc1)[C@@H](O)CC1(CCC1)C2 [Example 59, (5S)-2-Cyclopentyl-4-(3-thienyl)-3-[(S)-hydroxy-(4-trifluoromethylphenyl)-methyl]-7-spirocyclobutyl-5,6,7,8-tetrahydroquinolin-5-ol] | 60 nM |  |  |  | 35 nM
8 | CC(C)c1nc2c(c(C3CCCCC3)c1[C@@H](O)c1ccc(C(F)(F)F)cc1)[C@@H](O)CC1(CCC1)C2 [Example 65, (5S)-2-Isopropyl-4-cyclohexyl-3-[(S)-hydroxy-(4-trifluoromethylphenyl)-methyl]-7-spirocyclobutyl-5,6,7,8-tetrahydroquinolin-5-ol] | 80 nM | 69% | 46% | 28% | 
9 | O[C@@H](c1ccc(C(F)(F)F)cc1)c1c(C2CCCC2)nc2c(c1-c1ccccc1)[C@@H](O)CC1(CCC1)C2 [Example 55, (5S)-2-Cyclopentyl-4-phenyl-3-[(S)-hydroxy-(4-trifluoromethylphenyl)-methyl]-7-spirocyclobutyl-5,6,7,8-tetrahydroquinolin-5-ol] | 65 nM |  |  |  | 
